pKd, pKi: −log10 of the molar value.
Legend:
Lactococcus lactis = experiment: Inhibitory activity against family of dihydroorotate dehydrogenase 1A (1A DHOD) from Lactococcus lactis at 1 uMolar concentration; parameters: scale not given: the % may be the effect or the level left; conditions: 1 uM
[1] = Inhibition constant against dihydroorotate dehydrogenase 1A (1A DHOD) from Lactococcus lactis
[2] = Dissociation constant against dihydroorotate dehydrogenase 1A (1A DHOD) from Lactococcus lactis at 25 degrees C pH 8.0
[3] = Inhibition constant against 1A […] dehydrogenase (1A DHOD) from Lactococcus lactis
[4] = Dissociation constant against 1A […] dehydrogenase (1A DHOD) from Lactococcus lactis at 25 degrees C pH 8.0

Compound	Activity (Lactococcus lactis) [%]	other results
O=C(O)c1ccc(O)cc1	92	–
O=C(O)c1ccc(O)cc1O	91	–
O=C(O)c1ccc(O)nc1	94	–
O=C(O)c1ccccc1O	81	–
O=C(O)c1cc(O)cc(O)c1 [3,5-DIHYDROXYBENZOIC ACID]	6	pKi [1]: 4.68; pKd [2]: 4.74
O=C(O)c1ccc(O)c(O)c1 [PROTOCATECHUIC ACID]	7	pKi [3]: 4.92; pKd [4]: 4.72

Reference: ChEMBL document CHEMBL1134572, “Specific inhibition of a family 1A dihydroorotate dehydrogenase by benzoate pyrimidine analogues” (J Med Chem, 2001)
